In ChEMBL document CHEMBL1201862, “PubChem BioAssay data set” (2004):
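1) Cells in 96-well plates. 2) Compound, 48 h, 5 concentrations. 3) Linear interpolation between surrounding doses. 4) Unreached endpoint = highest concentration. The concentration for 50% growth inhibition is given as GI50.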 Activity calls are given as the source filed them. Cut-off read from the data, not from the text of the source: active = GI50 up to about 1.1 µM and inactive = higher.

Tests used:
Experiment in all cases: DTP human tumour cell line panel, 48 h
CAKI-1 = tested on: CAKI-1
NCI-H460 = tested on: NCI-H460
NCI-H226 = tested on: NCI-H226
OVCAR-3 = tested on: OVCAR-3
A498 = tested on: A498
OVCAR-8 = tested on: OVCAR-8
UACC-257 = tested on: UACC-257
HOP-62 = tested on: HOP-62
COLO 205 = tested on: COLO 205
SK-MEL-28 = tested on: SK-MEL-28
SK-MEL-2 = tested on: SK-MEL-2
786-0 = tested on: 786-0
K562 = tested on: K562
TK-10 = tested on: TK-10
HCT-15 = tested on: HCT-15
RPMI-8226 = tested on: RPMI-8226
MOLT-4 = tested on: MOLT-4

Row | Structure (SMILES) | GI50 (CAKI-1) | GI50 (NCI-H460) | GI50 (NCI-H226) | GI50 (OVCAR-3) | GI50 (A498) | GI50 (OVCAR-8) | GI50 (UACC-257) | GI50 (HOP-62) | GI50 (COLO 205) | GI50 (SK-MEL-28) | GI50 (SK-MEL-2) | GI50 (786-0) | GI50 (K562) | GI50 (TK-10) | GI50 (HCT-15) | GI50 (RPMI-8226) | GI50 (MOLT-4)
1 | COc1ccccc1NC(=O)C1=C(C)NC(C)=C(C(=O)Nc2ccccc2OC)C1c1ccccc1Cl | > 100 µM (inactive) | 59.3 µM (inactive) | > 100 µM (inactive) | > 100 µM (inactive) | > 100 µM (inactive) | > 100 µM (inactive) | > 100 µM (inactive) | > 100 µM (inactive) | > 100 µM (inactive) | > 100 µM (inactive) | 88.7 µM (inactive) | > 100 µM (inactive) | 32.7 µM (inactive) | > 100 µM (inactive) | 56.2 µM | 30.7 µM (inactive) | 27.2 µM (inactive)
2 | Cc1c(C)c2ccc(OC(C)C(=O)O)cc2oc1=O (stereo not given) | > 100 µM (inactive) | > 100 µM (inactive) | > 100 µM (inactive) | > 100 µM (inactive) | > 100 µM (inactive) | > 100 µM (inactive) | > 100 µM (inactive) | > 100 µM (inactive) | > 100 µM (inactive) | > 100 µM (inactive) | – | > 100 µM (inactive) | > 100 µM (inactive) | > 100 µM (inactive) | – | > 100 µM (inactive) | > 100 µM (inactive)
3 | Clc1cccc(N2CCN(CCCN3CCc4c([nH]c5ccccc45)C3c3cccnc3)CC2)c1 (stereo not given) | 9.68 µM (inactive) | 6.22 µM (inactive) | 18.1 µM (inactive) | 2.67 µM (inactive) | 10.4 µM (inactive) | 10.8 µM (inactive) | 4.34 µM (inactive) | 14.3 µM (inactive) | 2.88 µM (inactive) | 3.6 µM (inactive) | 11 µM (inactive) | 3.29 µM (inactive) | 3.78 µM (inactive) | > 10 µM (inactive) | 8.81 µM | 6.15 µM (inactive) | 3.88 µM (inactive)
4 | C/N=c1/ss/c(=N\C(SC)=[N+](C)C)n1C.[O-][Cl+3]([O-])([O-])[O-] | 54.8 µM (inactive) | 4.09 µM (inactive) | > 100 µM (inactive) | – | – | > 100 µM (inactive) | > 100 µM (inactive) | > 100 µM (inactive) | – | > 100 µM (inactive) | > 100 µM (inactive) | > 100 µM (inactive) | 17.3 µM (inactive) | > 100 µM (inactive) | > 100 µM | – | 21.1 µM (inactive)
5 | O=C1C(c2ccccc2)=C(c2ccccc2)C(c2ccccc2)/C1=C1\C(=O)C(c2ccccc2)=C(c2ccccc2)C1c1ccccc1 (stereo not given) | > 100 µM (inactive) | > 100 µM (inactive) | > 100 µM (inactive) | > 100 µM (inactive) | > 100 µM (inactive) | > 100 µM (inactive) | > 100 µM (inactive) | > 100 µM (inactive) | > 100 µM (inactive) | > 100 µM (inactive) | > 100 µM (inactive) | > 100 µM (inactive) | – | > 100 µM (inactive) | > 100 µM | > 100 µM (inactive) | > 100 µM (inactive)
6 | COC12OCCN(C)C1=CC(=O)C1N=NCC12 (stereo not given) | > 100 µM (inactive) | > 100 µM (inactive) | > 100 µM (inactive) | > 100 µM (inactive) | > 100 µM (inactive) | > 100 µM (inactive) | > 100 µM (inactive) | – | > 100 µM (inactive) | > 100 µM (inactive) | – | > 100 µM (inactive) | > 100 µM (inactive) | > 100 µM (inactive) | > 100 µM | > 100 µM (inactive) | > 100 µM (inactive)
7 | C/C=C/C(=O)[C@@H](O)C(C)C | > 100 µM (inactive) | – | > 100 µM (inactive) | > 100 µM (inactive) | – | > 100 µM (inactive) | > 100 µM (inactive) | – | > 100 µM (inactive) | > 100 µM (inactive) | > 100 µM (inactive) | > 100 µM (inactive) | > 100 µM (inactive) | > 100 µM (inactive) | > 100 µM | > 100 µM (inactive) | > 100 µM (inactive)
8 | O=C1C=CC(=O)C12CCc1ccccc12 | > 31.6 µM (inactive) | > 100 µM (inactive) | > 100 µM (inactive) | > 100 µM (inactive) | > 100 µM (inactive) | > 100 µM (inactive) | > 100 µM (inactive) | > 100 µM (inactive) | 57.5 µM (inactive) | > 100 µM (inactive) | > 100 µM (inactive) | > 100 µM (inactive) | 36.4 µM (inactive) | > 100 µM (inactive) | > 72.8 µM | 12.1 µM (inactive) | > 44.3 µM (inactive)
9 | Clc1ccc(-c2c(C3=NCCCN3)nnn2-c2ccccc2)cc1 | > 100 µM (inactive) | 33.6 µM (inactive) | > 100 µM (inactive) | > 100 µM (inactive) | > 100 µM (inactive) | > 100 µM (inactive) | > 100 µM (inactive) | > 100 µM (inactive) | 34.9 µM (inactive) | > 100 µM (inactive) | > 100 µM (inactive) | > 100 µM (inactive) | 41.7 µM (inactive) | > 100 µM (inactive) | 43.6 µM | – | > 100 µM (inactive)
10 | CC(=O)Nc1ccc(SC#N)c2c(NC(C)=O)cccc12 | > 65 µM (inactive) | > 100 µM (inactive) | > 100 µM (inactive) | 89.9 µM (inactive) | > 100 µM (inactive) | > 100 µM (inactive) | > 100 µM (inactive) | > 100 µM (inactive) | > 68.4 µM (inactive) | 84.3 µM (inactive) | > 100 µM (inactive) | > 100 µM (inactive) | 34 µM (inactive) | > 100 µM (inactive) | 53.8 µM | 24.4 µM (inactive) | 28.7 µM (inactive)
11 | CC(=O)OCCOCNC(=S)N/N=C/c1ccc([N+](=O)[O-])s1 | – | 42.4 µM (inactive) | > 100 µM (inactive) | 29.3 µM (inactive) | 86.7 µM (inactive) | 45.5 µM (inactive) | 23.8 µM (inactive) | > 100 µM (inactive) | 2.08 µM (inactive) | > 100 µM (inactive) | 67.3 µM (inactive) | > 100 µM (inactive) | 21.7 µM (inactive) | > 100 µM (inactive) | 30.4 µM | 29.1 µM (inactive) | 28.8 µM (inactive)
12 | CCOC(=O)C1(Br)S(=O)(=O)OCCOS1(=O)=O | – | > 100 µM (inactive) | > 100 µM (inactive) | > 100 µM (inactive) | > 100 µM (inactive) | > 100 µM (inactive) | > 100 µM (inactive) | > 100 µM (inactive) | > 100 µM (inactive) | > 100 µM (inactive) | > 100 µM (inactive) | > 100 µM (inactive) | > 100 µM (inactive) | > 100 µM (inactive) | > 100 µM | > 100 µM (inactive) | > 100 µM (inactive)
13 | O=C1C[S+]([O-])c2ccccc2N1 (stereo not given) | > 100 µM (inactive) | 66.1 µM (inactive) | > 100 µM (inactive) | > 100 µM (inactive) | > 100 µM (inactive) | > 100 µM (inactive) | > 100 µM (inactive) | > 100 µM (inactive) | 30.8 µM (inactive) | 55.1 µM (inactive) | > 100 µM (inactive) | > 100 µM (inactive) | > 100 µM (inactive) | > 100 µM (inactive) | > 100 µM | 45.8 µM (inactive) | > 100 µM (inactive)
14 | CCOC(=O)C1=C(Nc2ccc(Cl)cc2Cl)OCC1=O | > 100 µM (inactive) | > 100 µM (inactive) | > 100 µM (inactive) | > 100 µM (inactive) | – | > 100 µM (inactive) | > 100 µM (inactive) | > 100 µM (inactive) | > 100 µM (inactive) | > 100 µM (inactive) | > 100 µM (inactive) | > 100 µM (inactive) | > 100 µM (inactive) | > 100 µM (inactive) | > 100 µM | > 100 µM (inactive) | > 100 µM (inactive)
15 | O=C(O)C12CC3CC(CC(F)(C3)C1)C2 | – | > 100 µM (inactive) | – | > 100 µM (inactive) | > 100 µM (inactive) | > 100 µM (inactive) | > 100 µM (inactive) | > 100 µM (inactive) | > 100 µM (inactive) | > 100 µM (inactive) | > 100 µM (inactive) | > 100 µM (inactive) | > 100 µM (inactive) | > 100 µM (inactive) | – | > 100 µM (inactive) | > 100 µM (inactive)
16 | CCOC(=N)CC(=O)Nc1cccc(C)c1C | > 100 µM (inactive) | > 100 µM (inactive) | > 100 µM (inactive) | > 100 µM (inactive) | > 100 µM (inactive) | > 100 µM (inactive) | > 100 µM (inactive) | > 100 µM (inactive) | > 100 µM (inactive) | > 100 µM (inactive) | > 100 µM (inactive) | > 100 µM (inactive) | > 10 µM (inactive) | > 100 µM (inactive) | – | – | 2.77 µM (inactive)
17 | CCC1(CN(C)C)CC/C(=C\c2ccc(OC)cc2)C1=O (stereo not given) | > 100 µM (inactive) | > 100 µM (inactive) | > 100 µM (inactive) | > 100 µM (inactive) | 84.1 µM (inactive) | > 100 µM (inactive) | 89.3 µM (inactive) | > 100 µM (inactive) | 80.7 µM (inactive) | > 100 µM (inactive) | > 100 µM (inactive) | > 100 µM (inactive) | 40.9 µM (inactive) | > 100 µM (inactive) | 23.5 µM | 17.4 µM (inactive) | 3.14 µM (inactive)
18 | CCCCCCCCCCCCCCCC(=O)N[C@H]1CCc2cc(OC)c(OC)c(OC)c2-c2ccc(SC)c(=O)cc21 | 21.1 µM (inactive) | 0.376 µM (active) | 0.196 µM (active) | 0.225 µM (active) | 0.692 µM (active) | 0.557 µM (active) | 0.527 µM (active) | 7.73 µM (inactive) | 0.187 µM (active) | 0.782 µM (active) | 1.46 µM (inactive) | 2.36 µM (inactive) | 0.325 µM (active) | 0.492 µM (active) | 1.15 µM | 3.64 µM (inactive) | 1.23 µM (inactive)
